The source of these data is patent US20100260680A1, “NOVEL BONE MASS INCREASING AGENT” (ORIENTAL YEAST CO., LTD., priority 2007, published 2010).

Bridges are numbered along the chain shown (N, C = ends). Where no end group is shown, it is not given here.

In one series the test system is MC3T3-E1 cells. The series is described as follows: ALP activity determination in MC3T3-E1 cells. The settings on record: for inhibition of ALP activity enhancement caused by BMP-2: 100 ng/ml BMP-2; for inhibition of ALP activity enhancement caused by peptide D: 200 μM peptide D. In kind it is cell-based, mouse. As for the experimental part:
Seven days after differentiation, the culture supernatant was removed from each plate and the cells were fixed with an acetone/ethanol solution. The ALP activity was determined using p-nitrophenyl phosphate as a substrate. Specifically, a carbonate buffer (5 mM MgCl2, 50 mM NaHCO3) containing p-nitrophenyl phosphate (Nacalai) (1 mg/mL) was added to each well (100 μL/well), followed by incubation at 37° C. Then, the OD value at 405 nm was determined with the use of a microplate reader (BMG Labtech) for each well.
Cells mixed with 10% FBS+αMEM (GIBCO) were seeded on a 96-well plate (8×10^3 cells/well) and a 48-well plate (2×10^4 cells/well). The culture supernatant of each plate was replaced with 10% FBS+αMEM containing 5 mM β glycerophosphoric acid (SIGMA)+10 μg/mL sodium ascorbate (SIGMA) 48 hours later. Then, the medium was replaced with new medium every 3 or 4 days. As a control, MC3T3-E1 was cultured with the use of 10% FBS+αMEM as a maintenance medium. Upon medium replacement, a peptide was added to each plate at a concentration of 300 μM, ALP activity determination and alizarin red S staining were carried out by the method described in Example 1 on Days 7 and 21.
MC3T3-E1 cells mixed with 10% FBS+αMEM (SIGMA) were seeded on a 96-well plate (1.5×10^4 cells/well). After 12 hours, the medium was removed therefrom and a medium containing an SB203580 p38 inhibitor (Calbiochem) was added thereto. […] Then, ALP activity determination was carried out by the method described in Example 1.
Similarly, rhDkk-1 (R&D) was added as a Wnt antagonist at concentrations of 0.25, 0.5, and 1 μg/ml. After 1 hour, 200 μM peptide D was added thereto, followed by culture for 5 days. Then, ALP activity determination was carried out by the method described in Example 1.
In addition, as described above, BMPR-IA (R&D) was added as a BMP antagonist at concentrations of 0.25 and 1 μg/ml. […] Then, ALP activity determination was carried out by the method described in Example 1. […] Based on the above results, it was likely that actions of peptide D depend on BMP induction or BMP produced constantly and spontaneously by cells.
MC3T3-E1 cells mixed with 10% FBS+α MEM (SIGMA) were seeded on a 96-well plate (1.5×10^4 cells/well).
Further, peptide D and peptide E were compared with each other in terms of ALP activity enhancement actions in MC3T3-E1 cells. Peptide D and peptide E were used at concentrations of 25, 50, 100, and 200 μM for culture under the conditions described in Example 14, followed by determination of ALP activity by the method described in Example 1.
MC3T3-E1 cells (mouse osteoblast precursor cells) mixed with 10% FBS+αMEM (SIGMA) were seeded on a 96-well plate (2×10^4 cells/well). After cell adhesion, the medium was removed therefrom, followed by ALP activity determination in the cases involving the addition of 50 and 150 μM peptide D (acetate and hydrochloride). […] On Day 5 after the addition of the individual factors, the culture supernatant was removed, followed by ALP activity determination by the method described in Example 1.
MC3T3-E1 cells (mouse osteoblast precursor cells) mixed with 10% FBS+αMEM (SIGMA) were seeded on a 96-well plate (2×10^4 cells/well). After cell adhesion had taken place, the medium was removed therefrom, followed by determination of ALP activity in the cases involving the mixing of 5 ng/mLBMP-2 (produced by CHO cells) with 6.25, 12.5, 25, 50, and 100 μM synthetic peptide D. On Day 5 after the addition of the individual factors, the culture supernatant was removed, followed by ALP activity determination by the method described in Example 1.
At the end of the experiment, synergistic effects of synthetic peptide D in the form of acetate and BMP-4 (R&D) were also examined. MC3T3-E1 cells (mouse osteoblast precursor cells) mixed with 10% FBS+αMEM (SIGMA) were seeded on a 96-well plate (2×10^4 cells/well). […]

The test system of another series is C57BL/6N mice. As to the kind of experiment: RANKL administration test, bone morphology measurement. Format: in vivo, mouse. As for the experimental part: GST-RANKL was intraperitoneally administered at 57 nmol (low dose) or at 426 nmol (high dose) to 7-week-old female C57BL/6N mice (10 individuals) every 24 hours for three times. The mice were dissected 1.5 hours after the third administration. For comparison, a group to which PBS had been administered was used as a control.
The following organs were collected from each dissected mouse: femur, tibia, cerebrum, lungs, heart, liver, thymus, spleen, kidneys, and skin. Naturally occurring lesions were observed by HE staining of the cerebrum, the lungs, the heart, the liver, the thymus, the spleen, the kidneys, and the skin.

For another series, the system named is RAW264 cells. As to the kind of experiment: TRAP activity in RAW264 cells with GST-RANKL. Format: cell-based. The method, then: Peptide E (SEQ ID NO: 16) was prepared from peptide D with the substitution of a single amino acid. TRAP activity and ALP activity were determined to compare peptide D and peptide E in terms of effects of causing osteoclast differentiation and osteoblast differentiation. RAW264 cells mixed with 10% FBS+αMEM (SIGMA) were seeded on a 96-well plate (2×10^3 cells/well). After confirmation of cell adhesion, the medium was replaced with 10% FBS+αMEM containing 10 nM GST-RANKL (Oriental Yeast Co., Ltd.). Peptide D and peptide E were separately added thereto at concentrations of 25, 50, 100, and 200 μM, followed by culture for 4 days. After the termination of culture, 100 μL acetone/ethanol was added to each well for cell fixation, followed by drying in a draft for 30 min.
In order to obtain a TRAP solution buffer at a concentration of 1.5 mg/mL, a solution was prepared by adjusting p-nitrophenyl phosphate (Nacalai) with 50 mM citric acid buffer and adding a 0.2 M sodium tartrate solution in a volume 1/10 that of citric acid buffer. The obtained TRAP solution buffer was added to each well in an amount of 100 μL followed by incubation at 37° C. for 45 min. Then, a 1N NaOH solution (50 μL) was added thereto to terminate the reaction. The OD value at 405 nm was determined for each well with a microplate reader (BMG Labtech) in the same manner as in Example 1.
RAW264 cells mixed with 10% FBS+αMEM (SIGMA) were seeded on a 96-well plate (2×10^3 cells/well). After cell adhesion had taken place, the medium was replaced with 10% FBS+αMEM containing 5 nM GST-RANKL (Oriental Yeast Co., Ltd.). Peptide D in the form of TFA, peptide D in the form of acetate, and peptide D in the form of hydrochloride with concentrations of 25 and 100 μM were separately added thereto, followed by culture for 4 days. After the completion of culture, acetone/ethanol (100 μL) was added to each well for cell fixation, followed by drying in a draft for 30 min. TRAP activity determination was carried out by the method described in Example 16. […] Peptide D in the form of hydrochloride was confirmed to have neither osteoblast differentiation activity nor osteoclastgenesis inhibition activity. However, peptide D in the form of acetate was confirmed to have higher osteoblast differentiation activity and lower osteoclastgenesis inhibition activity compared with peptide D in the form of TFA. […] It is also possible to produce modified peptide D having osteoblast differentiation activity alone or modified peptide D having osteoclastgenesis inhibition activity alone.

In another series the target is T1, RANKL (Homo sapiens, UniProt O14788).
T1 sequence (O14788 140-317 limits assumed): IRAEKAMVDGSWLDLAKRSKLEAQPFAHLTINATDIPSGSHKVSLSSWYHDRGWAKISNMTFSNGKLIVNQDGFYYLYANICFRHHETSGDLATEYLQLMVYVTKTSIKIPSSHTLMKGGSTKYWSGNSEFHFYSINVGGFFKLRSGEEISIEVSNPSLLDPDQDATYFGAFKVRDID
The settings on record: Aoki et al., J Clin Invest 116: 1525, 2006; cited from earlier work.

Where [1] appears, read: high dose 426 nmol i.p. every 24 hours, three times.
The mark [2] stands for this setting: compared at concentrations with almost comparable effects.

As for “GST-RANKL: GST fusion protein with amino acids 140 to 317 of human RANKL (SEQ ID NO: 15)”, the “inhibition of synergistic ALP activity enhancement of peptide D (acetate) and BMP-2” value in the series on MC3T3-E1 cells (100 nM, 100 μM peptide D acetate + 5 ng/mL BMP-2, Day 5) is “significantly inhibited synergistic effects”. Further, the “HE staining of cerebrum, lungs, heart, liver, thymus, spleen, kidneys, skin” value with C57BL/6N mice (any group (57 nmol, 426 nmol)) was “abnormal findings and naturally occurring lesions were not observed”. In the series on C57BL/6N mice (setting [1]), the osteoclast number entry is recorded as “increased”, the trabecular number entry is “approximately 50%” and the unit bone mass entry is on record as “approximately 50%”. For the same molecule, the osteoblast surface area entry in the series on C57BL/6N mice (high-dose administration) is “significantly increased”. Besides, the “femur bone morphology by μCT” value in the series on C57BL/6N mice (high-dose administration group) is given as “significant bone decrease”. In the series with C57BL/6N mice (low dose 57 nmol i.p. every 24 hours, three times), the “unit bone mass and trabecular number” value is “no such decrease was observed”.
As to “Fc fusion peptide A: fusion protein of peptide A (SEQ ID NO: 47, YCAAAAACY) and Fc; negative control [reference compound]”, the ALP activity result with MC3T3-E1 cells (concentrated COS-1 culture supernatant diluted with αMEM, Day 5) is “such ALP activity enhancement action was not observed”.
Turning to “peptide E: SEQ ID NO: 16, prepared from peptide D with the substitution of a single amino acid; cyclic, Cys2-Cys8 disulfide (YCWSQNLCY; disulfide 2-8)”, the ALP activity entry in the series on MC3T3-E1 cells (25, 50, 100 and 200 μM, 5 days) is “enhance ALP activity in a concentration-dependent manner”. For the same molecule, in the series on MC3T3-E1 cells (setting [2]), the “ALP activity enhancement actions relative to the initial level (peptide D)” value is recorded as “approximately ¼”. Further, the TRAP activity entry in the series with RAW264 cells (25, 50, 100 and 200 μM, 10 nM GST-RANKL, 4 days) is recorded as “inhibit TRAP activity”. In addition, the “TRAP activity inhibition actions relative to the initial level (peptide D)” value in the series with RAW264 cells (setting [2]) is recorded as “one-half”. For the same molecule, the “affinity to sRANKL relative to the initial level (peptide D)” value with RANKL is “approximately ⅓”.
With `C[S+]([O-])c1ccc(-c2nc(-c3ccncc3)c(-c3ccc(F)cc3)[nH]2)cc1` (centres unmarked) [SB203580, reference compound], the “inhibition of ALP activity enhancement caused by BMP-2” value in the series on MC3T3-E1 cells (SB203580 1 μM, 5 days) is listed as “significant inhibition of ALP activity enhancement was not observed”; in the series with MC3T3-E1 cells (SB203580 at a concentration of 10, 5 days) it was “weak effects of inhibition”. Also, the “inhibition of ALP activity enhancement caused by peptide D” value is listed as “Significant inhibition” in the series with MC3T3-E1 cells (SB203580 1 μM, 5 days) and “complete inhibition” in the series on MC3T3-E1 cells (SB203580 10 μM, 5 days).

B1: Dkk-1: rhDkk-1 (R&D), Wnt antagonist (protein, UniProt O94907 32-266, looked up)
Dickkopf-related protein 1: TLNSVLNSNAIKNLPPPLGGAAGHPGSAVSAAPGILYPGGNKYQTIDNYQPYPCAEDEECGTDEYCASPTRGGDAGVQICLACRKRRKRCMRHAMCCPGNYCKNGICVSSDQNHFRGEIEETITESFGNDHSTLDGYSRRTTLSSKMYHTKGQEGSVCLRSSDCASGLCCARHFWSKICKPVLKEGQVCTKHRRKGSHGLEIFQRCYCGEGLSCRIQKDHHQASNSSRLHTCQRH
As to B1, the “inhibition of ALP activity enhancement caused by peptide D” value with MC3T3-E1 cells (rhDkk-1 0.25, 0.5 and 1 μg/ml, 5 days) is on record as “weakly but significantly inhibit”.

B2: BMPR-IA: BMPR-IA (R&D), BMP antagonist (protein, UniProt P36894 24-152, looked up)
extracellular domain: QNLDSMLHGTGMKSDSDQKKSENGVTLAPEDTLPFLKCYCSGHCPDDAINNTCITNGHCFAIIEEDDQGETTLASGCMKYEGSDFQCKDSPKAQLRRTIECCRTNLCNQYLQPTLPPVVIGPFFDGSIR
modifications: extracellular domain soluble reagent
notes: BMPR-IA (R&D), BMP antagonist
Consider B2, for which the “inhibition of ALP activity enhancement caused by peptide D and BMP-2” value in the series with MC3T3-E1 cells (BMPR-IA 0.25 and 1 μg/ml, 200 μM peptide D or 200 ng/ml BMP-2, 5 days) is recorded as “significantly inhibit”.
